Test system: 931267-113-T-J1-PDC multicell spheroid viability
Test: Anticancer human tumor 931267-113-T-J1-PDC patient-derived colon adenocarcinoma cell line growth inhibition [PI3K]
Conditions: for IC50: curve of first compound; for viability, T/C: stronger effect = lower value
In short: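 High-throughput combination screen: PI3K inhibitors crossed with targeted small molecules on complex spheroids of tumor cells, HUVEC and MSCs at 37 degrees C, 5% CO2. Top concentration was at or near clinical Cmax (otherwise 10 microM), with half-log decrements.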

[1] = second compound 0.0316 µM, first compound 0.0316 µM
[2] = second compound 0.0316 µM, first compound 0.1 µM
[3] = second compound 0.1 µM, first compound 0.0316 µM
[4] = second compound 0.1 µM, first compound 0.1 µM
[5] = second compound 0.316 µM, first compound 0.0316 µM
[6] = second compound 0.316 µM, first compound 0.1 µM
[7] = second compound 1 µM, first compound 0.0316 µM
[8] = second compound 1 µM, first compound 0.1 µM
[9] = second compound 3.16 µM, first compound 0.0316 µM
[10] = second compound 3.16 µM, first compound 0.1 µM
[11] = second compound 10 µM, first compound 0.0316 µM
[12] = second compound 10 µM, first compound 0.1 µM
[13] = second compound 0.0316 µM, first compound 0.316 µM
[14] = second compound 0.0316 µM, first compound 1 µM
[15] = second compound 0.0316 µM, first compound 3.16 µM
[16] = second compound 0.0316 µM, first compound 10 µM
[17] = second compound 0.1 µM, first compound 0.316 µM
[18] = second compound 0.1 µM, first compound 1 µM
[19] = second compound 0.1 µM, first compound 3.16 µM
[20] = second compound 0.1 µM, first compound 10 µM
[21] = second compound 0.316 µM, first compound 0.316 µM
[22] = second compound 0.316 µM, first compound 1 µM
[23] = second compound 0.316 µM, first compound 3.16 µM
[24] = second compound 0.316 µM, first compound 10 µM
[25] = second compound 1 µM, first compound 0.316 µM
[26] = second compound 1 µM, first compound 1 µM
[27] = second compound 1 µM, first compound 3.16 µM
[28] = second compound 1 µM, first compound 10 µM
[29] = second compound 3.16 µM, first compound 0.316 µM
[30] = second compound 3.16 µM, first compound 1 µM
[31] = second compound 3.16 µM, first compound 3.16 µM
[32] = second compound 3.16 µM, first compound 10 µM
[33] = second compound 10 µM, first compound 0.316 µM
[34] = second compound 10 µM, first compound 1 µM
[35] = second compound 10 µM, first compound 3.16 µM
[36] = second compound 10 µM, first compound 10 µM
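Further: viability read 7 days after compound addition.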

## CC(C)n1nc(-c2ccc3oc(N)nc3c2)c2c(N)ncnc21 + Cc1nc(NC(=O)N2CCCC2C(N)=O)sc1-c1ccnc(C(C)(C)C(F)(F)F)c1
Second compound 0.0316 µM
  IC50: 0.0915 µM
Second compound 0.1 µM
  IC50: 0.0777 µM
Second compound 0.316 µM
  IC50: 0.0697 µM
Second compound 1 µM
  IC50: 0.0569 µM
Second compound 3.16 µM
  IC50: 0.0249 µM
Second compound 10 µM
  IC50: 0.00831 µM
Second compound 0.0316 µM, first compound 0.000316 µM
  viability, T/C: 97.2%
Second compound 0.0316 µM, first compound 0.001 µM
  viability, T/C: 84.3%
Second compound 0.0316 µM, first compound 0.00316 µM
  viability, T/C: 81.5%
Second compound 0.0316 µM, first compound 0.01 µM
  viability, T/C: 101%
[1]
  viability, T/C: 78.3%
[2]
  viability, T/C: 47.6%
Second compound 0.1 µM, first compound 0.000316 µM
  viability, T/C: 97.3%
Second compound 0.1 µM, first compound 0.001 µM
  viability, T/C: 91.1%
Second compound 0.1 µM, first compound 0.00316 µM
  viability, T/C: 89.9%
Second compound 0.1 µM, first compound 0.01 µM
  viability, T/C: 92.6%
[3]
  viability, T/C: 79.7%
[4]
  viability, T/C: 41.5%
Second compound 0.316 µM, first compound 0.000316 µM
  viability, T/C: 88.8%
Second compound 0.316 µM, first compound 0.001 µM
  viability, T/C: 91.9%
Second compound 0.316 µM, first compound 0.00316 µM
  viability, T/C: 86.8%
Second compound 0.316 µM, first compound 0.01 µM
  viability, T/C: 85.5%
[5]
  viability, T/C: 68.4%
[6]
  viability, T/C: 41.5%
Second compound 1 µM, first compound 0.000316 µM
  viability, T/C: 78.9%
Second compound 1 µM, first compound 0.001 µM
  viability, T/C: 72.3%
Second compound 1 µM, first compound 0.00316 µM
  viability, T/C: 72.7%
Second compound 1 µM, first compound 0.01 µM
  viability, T/C: 66.8%
[7]
  viability, T/C: 64.1%
[8]
  viability, T/C: 38.3%
Second compound 3.16 µM, first compound 0.000316 µM
  viability, T/C: 68.8%
Second compound 3.16 µM, first compound 0.001 µM
  viability, T/C: 67.8%
Second compound 3.16 µM, first compound 0.00316 µM
  viability, T/C: 62.1%
Second compound 3.16 µM, first compound 0.01 µM
  viability, T/C: 58.4%
[9]
  viability, T/C: 48.4%
[10]
  viability, T/C: 30.7%
Second compound 10 µM, first compound 0.000316 µM
  viability, T/C: 62.3%
Second compound 10 µM, first compound 0.001 µM
  viability, T/C: 52.3%
Second compound 10 µM, first compound 0.00316 µM
  viability, T/C: 55.6%
Second compound 10 µM, first compound 0.01 µM
  viability, T/C: 45.7%
[11]
  viability, T/C: 44%
[12]
  viability, T/C: 24.1%

## CC1(C)CCC(CN2CCN(c3ccc(C(=O)NS(=O)(=O)c4ccc(NCC5CCOCC5)c([N+](=O)[O-])c4)c(Oc4cnc5[nH]ccc5c4)c3)CC2)=C(c2ccc(Cl)cc2)C1 + Cc1nc(NC(=O)N2CCCC2C(N)=O)sc1-c1ccnc(C(C)(C)C(F)(F)F)c1
Second compound 0.0316 µM
  IC50: 6.06 µM
Second compound 0.1 µM
  IC50: 5.9 µM
Second compound 0.316 µM
  IC50: 5.31 µM
Second compound 1 µM
  IC50: 4.73 µM
Second compound 3.16 µM
  IC50: 4.44 µM
Second compound 10 µM
  IC50: 3.48 µM
[1]
  viability, T/C: 105%
[2]
  viability, T/C: 98.3%
[13]
  viability, T/C: 98%
[14]
  viability, T/C: 108%
[15]
  viability, T/C: 90.3%
[16]
  viability, T/C: 19%
[3]
  viability, T/C: 95.4%
[4]
  viability, T/C: 94%
[17]
  viability, T/C: 92%
[18]
  viability, T/C: 102%
[19]
  viability, T/C: 92.6%
[20]
  viability, T/C: 14%
[5]
  viability, T/C: 91.7%
[6]
  viability, T/C: 101%
[21]
  viability, T/C: 98.5%
[22]
  viability, T/C: 84.7%
[23]
  viability, T/C: 80.2%
[24]
  viability, T/C: 15.7%
[7]
  viability, T/C: 91.7%
[8]
  viability, T/C: 78.4%
[25]
  viability, T/C: 79.4%
[26]
  viability, T/C: 88.1%
[27]
  viability, T/C: 72.5%
[28]
  viability, T/C: 8.3%
[9]
  viability, T/C: 73.2%
[10]
  viability, T/C: 72.8%
[29]
  viability, T/C: 72.5%
[30]
  viability, T/C: 70.6%
[31]
  viability, T/C: 67.6%
[32]
  viability, T/C: 8.18%
[11]
  viability, T/C: 57.1%
[12]
  viability, T/C: 57.9%
[33]
  viability, T/C: 50.3%
[34]
  viability, T/C: 58.1%
[35]
  viability, T/C: 53.7%
[36]
  viability, T/C: 7.58%

## CCCS(=O)(=O)Nc1ccc(F)c(C(=O)c2c[nH]c3ncc(-c4ccc(Cl)cc4)cc23)c1F + Cc1nc(NC(=O)N2CCCC2C(N)=O)sc1-c1ccnc(C(C)(C)C(F)(F)F)c1
Second compound 0.0316 µM
  IC50: 6.23 µM
Second compound 0.1 µM
  IC50: 6.09 µM
Second compound 0.316 µM
  IC50: 5.47 µM
Second compound 1 µM
  IC50: 5.38 µM
Second compound 3.16 µM
  IC50: 4.53 µM
Second compound 10 µM
  IC50: 2.39 µM
[1]
  viability, T/C: 104%
[2]
  viability, T/C: 98%
[13]
  viability, T/C: 121%
[14]
  viability, T/C: 131%
[15]
  viability, T/C: 113%
[16]
  viability, T/C: 6.2%
[3]
  viability, T/C: 99.5%
[4]
  viability, T/C: 105%
[17]
  viability, T/C: 105%
[18]
  viability, T/C: 118%
[19]
  viability, T/C: 120%
[20]
  viability, T/C: 5.03%
[5]
  viability, T/C: 100%
[6]
  viability, T/C: 91%
[21]
  viability, T/C: 95.7%
[22]
  viability, T/C: 108%
[23]
  viability, T/C: 91.2%
[24]
  viability, T/C: 4.47%
[7]
  viability, T/C: 87.8%
[8]
  viability, T/C: 80.5%
[25]
  viability, T/C: 91.5%
[26]
  viability, T/C: 96.6%
[27]
  viability, T/C: 89.6%
[28]
  viability, T/C: 4.19%
[9]
  viability, T/C: 69%
[10]
  viability, T/C: 82.1%
[29]
  viability, T/C: 77.7%
[30]
  viability, T/C: 72.5%
[31]
  viability, T/C: 70.7%
[32]
  viability, T/C: 4.52%
[11]
  viability, T/C: 61.2%
[12]
  viability, T/C: 60.9%
[33]
  viability, T/C: 65.3%
[34]
  viability, T/C: 63.7%
[35]
  viability, T/C: 46%
[36]
  viability, T/C: 3.36%

Source: PubChem BioAssay AID1963970 (Molecular Pharmacology Branch, DTP, NCI, 2024)
